These are literature values, as cited in patent EP3320903B1 (HK inno.N Corporation, priority 2015, dated 2017).

In general, pKa refers to the negative logarithm of the acid dissociation constant.

In the case of `CC(C)c1nc(N(C)S(C)(=O)=O)nc(-c2ccc(F)cc2)c1/C=C/[C@@H](O)C[C@@H](O)CC(=O)O` [rosuvastatin, (3R,5S,6E)-7-[4-(4-fluorophenyl)-2-(N-methylmethanesulfonamido)-6-(propan-2-yl)pyrimidin-5-yl]-3,5-dihydroxyhepten-6-oic acid], the pKa was approximately 4.6.
